# Data: US12428377B2, “Sodium-hydrogen exchanger 3 inhibitor compounds” (Eli Lilly and Company, priority 2019, dated 2025)
# How the values were obtained:
# [1] = tested on: Male Sprague-Dawley rats; assay: Effect of Example 1 on sodium absorption (urinary sodium excretion after oral NaCl bolus); type: in vivo, rat; conditions: 2 h urine; for Urinary Sodium to Creatinine Ratio: mean ± SEM
# Protocol: Effect of Example 1 on Sodium Absorption
# Urinary sodium excretion following an oral bolus dose of sodium chloride is an indirect measure of sodium absorption in the intestine.
# Male Sprague-Dawley with body weights ranging from 200 to 250 g are randomized into groups based on equal mean body weights. Henceforth the following formulation is referred to as “1% HEC”: 1% hydroxyethyl cellulose (HEC) and 0.25% Tween® 80 with antifoam vehicle in water. Example 1 at 0.1 mg/mL (final dose 1 mg/kg dosed in 10 mL/kg volume) is formulated with 1% HEC in a glass vial containing a pre-weighed amount of compound, and then probe sonicating until it appears as a uniform suspension. […] The subsequent dosing solutions of Example 1 are prepared by serial dilutions with 1% HEC. NaCl at 10 mg/ml (final dose 200 mg/kg dosed in 20 ml/kg volume) is formulated by adding sterile water.
# On the day before the study, the animals are placed into clean cages without food but with access to water for an overnight fast. On the day of the study, rats are orally dosed with vehicle or varying doses of Example 1. 30 min later, animals are dosed with NaCl, then immediately transferred to metabolic cages. Urine samples are collected for 2 h. Net urine volume is recorded. Urinary sodium, and creatinine are assessed using a clinical biochemistry analyzer.
# Values expressed as the ratio of urinary sodium to creatinine (mM/mM) are calculated and presented as mean±SEM. The curves are fitted with 4-parameter logistic curve fitting tool GraphPad Prism 6 to calculate the ED50. For the purpose of curve fitting, the dose of Example 1 is artificially set to 0.001 mg/kg in the software for the vehicle-alone group.
# [2] = target: T1, human NHE3 (Homo sapiens, UniProt P48764); assay: In vitro NHE3 inhibition activity (intracellular pH recovery, BCECF-AM, NHD C8 cells overexpressing human NHE3); type: cell-based; conditions: geometric mean of individual IC50
# T1 construct: myc; expressed in transfected cells
# T1 sequence (P48764 26-834): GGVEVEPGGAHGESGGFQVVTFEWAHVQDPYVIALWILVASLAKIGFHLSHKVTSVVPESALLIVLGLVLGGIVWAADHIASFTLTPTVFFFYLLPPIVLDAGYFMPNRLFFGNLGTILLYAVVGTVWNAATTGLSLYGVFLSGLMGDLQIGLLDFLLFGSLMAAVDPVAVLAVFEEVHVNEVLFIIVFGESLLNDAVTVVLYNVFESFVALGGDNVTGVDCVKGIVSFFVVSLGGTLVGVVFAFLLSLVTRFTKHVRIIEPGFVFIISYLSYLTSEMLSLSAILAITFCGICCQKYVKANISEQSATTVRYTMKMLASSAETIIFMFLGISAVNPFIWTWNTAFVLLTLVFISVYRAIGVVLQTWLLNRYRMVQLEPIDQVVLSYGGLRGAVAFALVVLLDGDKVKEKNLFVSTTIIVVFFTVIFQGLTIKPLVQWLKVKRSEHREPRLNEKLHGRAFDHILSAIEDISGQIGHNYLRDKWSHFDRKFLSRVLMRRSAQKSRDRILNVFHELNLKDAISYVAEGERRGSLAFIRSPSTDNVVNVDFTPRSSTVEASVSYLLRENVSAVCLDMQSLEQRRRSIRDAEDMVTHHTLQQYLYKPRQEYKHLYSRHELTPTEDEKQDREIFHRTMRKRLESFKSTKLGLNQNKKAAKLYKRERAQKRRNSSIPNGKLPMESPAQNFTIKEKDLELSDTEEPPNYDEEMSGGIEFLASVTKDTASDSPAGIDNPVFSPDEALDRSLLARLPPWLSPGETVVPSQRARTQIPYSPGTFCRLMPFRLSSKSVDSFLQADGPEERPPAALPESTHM
# Description: In Vitro NHE3 Inhibition Activity
# To create an NHE3 assay, cells selectively expressing NHE3 are generated by overexpressing human NHE3 in an endogenously NHE-deficient cell line. The NHE-deficient cell line is created by chemical-induced mutagenesis. After the mutagenesis, NHE-deficient cells are selected by subjecting lithium (Li) loaded cells to an acidic extracellular environment. Under these conditions, NHE exchanges intracellular Li^+ for extracellular protons, thus only NHE-deficient cells can avoid a toxic intracellular acidosis and survive.
# An NHE-deficient cell line, NHD C8, is generated by mutagenesis and selection from the cell line Dede (ATCC® CCL-39™). The mutagenesis is induced by treating Dede CCL-39 cells with EMS (Sigma-Aldrich) in growth media at a final concentration of 500 μg/ml for 20 h. […]
# To measure NHE activity, the intracellular pH of the cells is reduced by addition of NH4Cl. The sodium-dependent intracellular pH change is then measured by the intracellular pH-sensitive fluorescein dye, BCECF-AM (Molecular Probes-ThermoFisher Scientific). […] The plate is immediately read for fluorescent intensity at an excitation wavelength of 505 nm and emission wavelength of 550 nm. […]
structure (smiles),measurement,setting,value
"CN1Cc2c(Cl)cc(Cl)cc2[C@H](c2cccc(S(=O)(=O)NCCOCCOCCN/C(=N\C#N)NCCCCN/C(=N/C#N)NCCOCCOCCNS(=O)(=O)c3cccc([C@@H]4CN(C)Cc5c(Cl)cc(Cl)cc54)c3)c2)C1 [Example 1, 2-Cyano-1-[4-[[N′-cyano-N-[2-[2-[2-[[3-[(4S)-6,8-dichloro-2-methyl-3,4-dihydro-1H-isoquinolin-4-yl]phenyl]sulfonylamino]ethoxy]ethoxy]ethyl]carbamimidoyl]amino]butyl]-3-[2-[2-[2-[[3-[(4S)-6,8-dichloro-2-methyl-3,4-dihydro-1H-isoquinolin-4-yl]phenyl]sulfonylamino]ethoxy]ethoxy]ethyl]guanidine]",ED50,"[1]; Rattus norvegicus, oral, NaCl bolus 200 mg/kg",0.058 mg/kg
same,Urinary Sodium to Creatinine Ratio,[1]; oral 0.03 mg/kg,1.19 ± 0.19 mM/mM
same,Urinary Sodium to Creatinine Ratio,[1]; oral 0.1 mg/kg,0.80 ± 0.23 mM/mM
same,Urinary Sodium to Creatinine Ratio,[1]; oral 0.3 mg/kg,0.37 ± 0.06 mM/mM
same,Urinary Sodium to Creatinine Ratio,[1]; oral 1.0 mg/kg,0.63 ± 0.23 mM/mM
same,IC50,[2],0.0379 µM
